According to patent publication US7041785B1, “B1-bradykinin receptor antagonists and use thereof” (Université de Sherbrooke, priority 1996, dated 2006):
Like-named read-outs stand apart in the source and are kept apart here. Non-standard residues stand in square brackets, D forms with d. Residues, ends and D or L forms follow the SMILES beside them. 2Nal = N[C@@H](Cc1ccc2ccccc2c1)C(=O)O; d2Nal = N[C@H](Cc1ccc2ccccc2c1)C(=O)O; Hyp = O=C(O)[C@@H]1C[C@@H](O)CN1; Tic = O=C(O)[C@@H]1Cc2ccccc2CN1; dTic = O=C(O)[C@H]1Cc2ccccc2CN1; Sar = CNCC(=O)O

Assays:
[1] = test system: T1, angiotensin-converting enzyme (ACE); assay: Metabolic degradation by purified angiotensin-converting enzyme, HPLC analysis; assay type: in vitro ADME, rabbit; conditions: rabbit, isolated enzyme ace, pH 7.5
T1 construct: purified angiotensin-converting enzyme (ACE) from rabbit lungs; purchased Sigma, St-Louis, Mo; host or cells: purified from rabbit lungs
Procedure: The metabolic stability of various kinin-related peptides was evaluated by incubating the peptide in the presence of purified angiotensin-converting enzyme (ACE) from rabbit lungs (purchased from Sigma, St-Louis, Mo.) dissolved in phosphate buffered saline (PBS) (50 mmol/L, pH 7.5 containing 300 mmoL/L NaCl); the final concentration of enzyme was 45 μg/mL. The experimental protocol for the measurement of ACE activity has been described elsewhere^15,16. Briefly, 200 μmol/L of peptides (40 μL) were placed in a PBS buffer and incubated for 5 min at 37EC before adding 8.5 μL of ACE (total volume of the reaction medium; 190 μL). Samples were withdrawn at 30 min intervals, immersed in boiling water for 5 min, then cooled on ice and centrifuged (5 min) before proceeding to analysis of peptides by high pressure liquid chromatography (HPLC). Results of ACE metabolism are expressed in percent of kinin degradation following the incubation (30 min) of kinin substrates with the enzyme.
Pure peptides and metabolic products were analysed by reverse-phas HPLC on a C18 μBondapak column (4.6 mm×25 cm) (Waters) of 10-μm particle size. The peptides and their fragments were eluted at the rate of 2.0 mL/min. with a linear gradient ranging from 5 to 65% of acetonitrile/TFA 0.05%/water over 20 min. at room temperature. The elution positions of these peptides were determined by following the absorbance at 214 nm. For each assay, 50 μL of the reaction medium (treated or not with ACE) were extracted and injected into the column. Concentrations of the peaks products, different from the peaks of the peptide substrate, were estimated using a computer software program (Baseline 810; Waters) that controlled also all the chromatography operations. Isolated metabolites and substrates were collected and identified by Electrospray mass spectrometry (positive mode).

B1 receptor = target: T2, B1 receptor (Oryctolagus cuniculus, UniProt P48748); assay: cell-based; conditions: for Kb: Rb.A. pA2, apparent affinity as antagonist vs desArg9BK; for Rb.A. α^E: residual agonistic activity at 10 μg/mL in comparison with desArg9BK
T2 sequence (P48748 1-352): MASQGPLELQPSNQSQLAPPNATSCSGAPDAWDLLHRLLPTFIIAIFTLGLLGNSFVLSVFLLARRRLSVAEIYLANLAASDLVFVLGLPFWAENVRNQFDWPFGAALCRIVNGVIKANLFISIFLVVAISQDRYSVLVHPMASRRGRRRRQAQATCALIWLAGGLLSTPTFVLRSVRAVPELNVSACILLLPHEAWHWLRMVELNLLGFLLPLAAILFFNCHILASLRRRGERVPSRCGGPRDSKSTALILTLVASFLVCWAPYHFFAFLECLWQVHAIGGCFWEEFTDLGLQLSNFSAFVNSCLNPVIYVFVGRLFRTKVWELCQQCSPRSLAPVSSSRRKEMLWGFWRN
In short: (§1)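 Isolated rabbit jugular vein (captopril 1 μmol/L), guinea pig ileum, endothelium-free rabbit aorta and human umbilical vein, in Krebs at 37 °C, with isometric tension recorded. Agonism was tested at 10 μg/mL.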

B2 receptor = target: T3, B2 receptor (Oryctolagus cuniculus, UniProt Q28642); assay: cell-based; conditions: for Rb.J.V. α^E: residual agonistic activity at 10 μg/mL in comparison with BK
T3 sequence (Q28642 1-367): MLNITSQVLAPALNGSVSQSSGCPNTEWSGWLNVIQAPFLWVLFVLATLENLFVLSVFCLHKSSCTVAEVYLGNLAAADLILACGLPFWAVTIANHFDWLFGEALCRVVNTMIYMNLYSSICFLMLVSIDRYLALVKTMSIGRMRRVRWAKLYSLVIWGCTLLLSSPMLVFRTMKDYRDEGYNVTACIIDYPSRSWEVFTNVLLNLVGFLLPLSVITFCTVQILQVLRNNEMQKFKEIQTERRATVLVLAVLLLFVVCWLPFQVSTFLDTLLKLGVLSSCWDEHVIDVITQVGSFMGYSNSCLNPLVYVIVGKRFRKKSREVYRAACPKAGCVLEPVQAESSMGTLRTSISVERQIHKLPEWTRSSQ
In short: as §1

[2] = antagonist applied 10 min before, Inactive = no detectable antagonistic effect at ≦ 10 μg/ml
[3] = 30 min incubation of peptide (200 μmol/L) with ACE, 37 C, read-out: ACE (% degradation)

Compound | metabolised at 0.5 h [1] [%] | Kb (B1 receptor; [2]) [nM] | Kb (B2 receptor) [nM] | metabolised at 0.5 h, 42.1 μmol/L [1] [%] | other results
CC(C)C[C@H](NC(=O)[C@H]1Cc2ccccc2CN1C(=O)[C@H](CO)NC(=O)[C@H](Cc1ccccc1)NC(=O)CNC(=O)[C@@H]1CCCN1C(=O)[C@@H]1CCCN1C(=O)[C@@H](N)CCCNC(=N)N)C(=O)O [Compound 8, (D-Tic^7, Leu^8)desArg^9BK] (H-RPPGFS[dTic]L-OH; N-terminus and C-terminus assumed) | 0 | 1380 | – | – | –
CNCC(=O)N[C@@H](CCCNC(=N)N)C(=O)N1CCC[C@H]1C(=O)N1CCC[C@H]1C(=O)NCC(=O)N[C@@H](Cc1ccccc1)C(=O)N[C@@H](CO)C(=O)N1Cc2ccccc2C[C@@H]1C(=O)N[C@@H](CC(C)C)C(=O)O [Compound 9, Sar(D-Tic^7, Leu^8)desArg^9BK] (H-[Sar]RPPGFS[dTic]L-OH; N-terminus and C-terminus assumed) | – | 692 | – | – | metabolised at 0.5 h [1, 3]: 0%
CC(C)C[C@H](NC(=O)[C@H]1Cc2ccccc2CN1C(=O)[C@H](CO)NC(=O)[C@H](Cc1ccccc1)NC(=O)CNC(=O)[C@@H]1CCCN1C(=O)[C@@H]1CCCN1C(=O)[C@H](CCCNC(=N)N)NC(=O)[C@H](N)CCCNC(=N)N)C(=O)O [Compound 12, D-Arg(D-Tic^7, Leu^8)desArg^9BK] (H-[dR]RPPGFS[dTic]L-OH; N-terminus and C-terminus assumed) | 0 | 200 | 4470 | – | –
CC[C@H](C)[C@H](NC(=O)[C@H]1Cc2ccccc2CN1C(=O)[C@H](CO)NC(=O)[C@H](Cc1ccccc1)NC(=O)CNC(=O)[C@@H]1CCCN1C(=O)[C@@H]1CCCN1C(=O)[C@H](CCCNC(=N)N)NC(=O)[C@H](N)CCCNC(=N)N)C(=O)O [Compound 13, D-Arg(D-Tic^7, Ile^8)desArg^9BK] (H-[dR]RPPGFS[dTic]I-OH; N-terminus and C-terminus assumed) | 9 ± 1 | 107 | 4570 | – | Rb.A. pA2 (B1 receptor; apparent affinity as antagonist vs desArg9BK, antagonist applied 10 min before, Inactive = no detectable antagonistic effect at ≦ 10 μg/ml): 6.97
CC[C@H](C)[C@H](NC(=O)[C@@H]1Cc2ccccc2CN1C(=O)[C@H](CO)NC(=O)[C@H](Cc1ccccc1)NC(=O)CNC(=O)[C@@H]1CCCN1C(=O)[C@@H]1CCCN1C(=O)[C@H](CCCNC(=N)N)NC(=O)[C@H](N)CCCNC(=N)N)C(=O)O [Compound 14, D-Arg(L-Tic^7, Ile^8)desArg^9BK] (H-[dR]RPPGFS[Tic]I-OH; N-terminus and C-terminus assumed) | 77 ± 3 | > 9120 | 6460 | – | –
CC(C)C[C@H](NC(=O)[C@H]1Cc2ccccc2CN1C(=O)[C@H](CO)NC(=O)[C@H](Cc1ccccc1)NC(=O)CNC(=O)[C@@H]1C[C@@H](O)CN1C(=O)[C@@H]1CCCN1C(=O)[C@H](CCCNC(=N)N)NC(=O)[C@H](N)CCCNC(=N)N)C(=O)O [Compound 17, D-Arg(Hyp^3, D-Tic^7, Leu^8)desArg^9BK] (H-[dR]RP[Hyp]GFS[dTic]L-OH; N-terminus and C-terminus assumed) | 0 | 229 | > 9120 | – | –
CC(=O)N[C@@H](CCCCN)C(=O)N[C@@H](CCCNC(=N)N)C(=O)N1CCC[C@H]1C(=O)N1CCC[C@H]1C(=O)NCC(=O)N[C@@H](Cc1ccccc1)C(=O)N[C@@H](CO)C(=O)N[C@H](Cc1ccc2ccccc2c1)C(=O)N[C@@H](CC(C)C)C(=O)O [Compound 18, AcLys(D-βNal^7, Leu^8)desArg^9BK] (Ac-KRPPGFS[d2Nal]L-OH; C-terminus assumed) | – | 12.3 | > 8710 | 22 ± 1 | Rb.J.V. α^E (B2 receptor): 0; Rb.A. α^E (B1 receptor): 0
CC[C@H](C)[C@H](NC(=O)[C@@H](Cc1ccc2ccccc2c1)NC(=O)[C@H](CO)NC(=O)[C@H](Cc1ccccc1)NC(=O)CNC(=O)[C@@H]1CCCN1C(=O)[C@@H]1CCCN1C(=O)[C@H](CCCN=C(N)N)NC(=O)[C@H](CCCCN)NC(C)=O)C(=O)O [Compound 19, AcLys(D-βNal^7, Ile^8)desArg^9BK] (Ac-KRPPGFS[d2Nal]I-OH) | – | 3.98 | – | 34 ± 1 | –
CC[C@H](C)[C@H](NC(=O)[C@H](Cc1ccc2ccccc2c1)NC(=O)[C@H](CO)NC(=O)[C@H](Cc1ccccc1)NC(=O)CNC(=O)[C@@H]1CCCN1C(=O)[C@@H]1CCCN1C(=O)[C@H](CCCNC(=N)N)NC(=O)[C@H](CCCCN)NC(C)=O)C(=O)O [Compound 20, AcLys(L-βNal^7, Ile^8)desArg^9BK] (Ac-KRPPGFS[2Nal]I-OH; C-terminus assumed) | – | 5010 | 7760 | 99 ± 1 | Rb.J.V. α^E (B2 receptor): 0; Rb.A. α^E (B1 receptor): 0
CC[C@H](C)[C@H](NC(=O)[C@@H](Cc1ccc2ccccc2c1)NC(=O)[C@H](CO)NC(=O)[C@H](Cc1ccccc1)NC(=O)CNC(=O)[C@@H]1CCCN1C(=O)[C@@H]1CCCN1C(=O)[C@H](CCCNC(=N)N)NC(=O)[C@H](N)CCCNC(=N)N)C(=O)O [Compound 23, D-Arg(D-βNal^7, Ile^8)desArg^9BK] (H-[dR]RPPGFS[d2Nal]I-OH; N-terminus and C-terminus assumed) | – | 19.1 | 427 | 8 ± 1 | –
CC(C)C[C@H](NC(=O)[C@@H](Cc1ccc2ccccc2c1)NC(=O)[C@H](CO)NC(=O)[C@H](Cc1ccccc1)NC(=O)CNC(=O)[C@@H]1CCCN1C(=O)[C@@H]1CCCN1C(=O)[C@H](CCCNC(=N)N)NC(=O)[C@H](N)CCCNC(=N)N)C(=O)O [Compound 24, D-Arg(D-βNal^7, Leu^8)desArg^9BK] (H-[dR]RPPGFS[d2Nal]L-OH; N-terminus and C-terminus assumed) | – | 50.1 | 3630 | 5 ± 1 | –
CC[C@H](C)[C@H](NC(=O)[C@@H](Cc1ccc2ccccc2c1)NC(=O)[C@H](CO)NC(=O)[C@H](Cc1ccccc1)NC(=O)CNC(=O)[C@@H]1CCCN1C(=O)[C@@H]1CCCN1C(=O)[C@H](CCCNC(=N)N)NC(=O)[C@H](N)CCCCN)C(=O)O [Compound 25, D-Lys(D-βNal^7, Ile^8)desArg^9BK] (H-[dK]RPPGFS[d2Nal]I-OH; N-terminus and C-terminus assumed) | – | 19.5 | 3720 | 9 ± 2 | –
CC[C@H](C)[C@H](NC(=O)[C@@H](Cc1ccc2ccccc2c1)NC(=O)[C@H](CO)NC(=O)[C@H](Cc1ccccc1)NC(=O)CNC(=O)[C@@H]1CCCN1C(=O)[C@@H]1CCCN1C(=O)[C@H](CCCNC(=N)N)NC(=O)CNC)C(=O)O [Compound 26, Sar(D-βNal^7, Ile^8)desArg^9BK] (H-[Sar]RPPGFS[d2Nal]I-OH; N-terminus and C-terminus assumed) | – | 38 | 9120 | – | metabolised at 0.5 h, 42.1 μmol/L [1, 3]: 0%
CNCC(=O)N[C@@H](Cc1ccc(O)cc1)C(=O)NCCCCCC(=O)N[C@@H](CCCCN)C(=O)N[C@@H](CCCNC(=N)N)C(=O)N1CCC[C@H]1C(=O)N1CCC[C@H]1C(=O)NCC(=O)N[C@@H](Cc1ccccc1)C(=O)N[C@@H](CO)C(=O)N1CCC[C@H]1C(=O)N[C@@H](CC(C)C)C(=O)O [Compound 28, SarTyrεAhxLys(Leu^8)desArg^9BK] | – | 6.76 | – | 34 ± 3 | –
